Assay results reported in ChEMBL document CHEMBL1201862, “PubChem BioAssay data set” (2004).
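Cultured in 96-well plates, cells were exposed to test compound for 48 hours across five concentrations. GI50 is the concentration that inhibits growth by half.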 The source made the active and inactive calls. Rule as the data show it: active = GI50 up to about 1.1 µM and inactive = higher.

Tests used:
Test in all cases: inhibition of tumour cell growth, NCI panel, 48 h
786-0 = test system: 786-0
A498 = test system: A498
A549 = test system: A549
ACHN = test system: ACHN
BT-549 = test system: BT-549
CCRF-CEM = test system: CCRF-CEM
COLO 205 = test system: COLO 205
DU-145 = test system: DU-145
EKVX = test system: EKVX
HCC 2998 = test system: HCC 2998
HCT-116 = test system: HCT-116
HCT-15 = test system: HCT-15
HL-60 = test system: HL-60
HOP-92 = test system: HOP-92
HT-29 = test system: HT-29
Hs-578T = test system: Hs-578T
IGROV-1 = test system: IGROV-1
K562 = test system: K562
KM12 = test system: KM12
LOX IMVI = test system: LOX IMVI
M14 = test system: M14
MCF7 = test system: MCF7
MDA-MB-435 = test system: MDA-MB-435
MDA-N = test system: MDA-N
MOLT-4 = test system: MOLT-4
Malme-3M = test system: Malme-3M
NCI-H226 = test system: NCI-H226
OVCAR-3 = test system: OVCAR-3
OVCAR-4 = test system: OVCAR-4
OVCAR-5 = test system: OVCAR-5
OVCAR-8 = test system: OVCAR-8
PC-3 = test system: PC-3
RPMI-8226 = test system: RPMI-8226
SF-268 = test system: SF-268
SF-539 = test system: SF-539
SK-MEL-28 = test system: SK-MEL-28
SK-MEL-2 = test system: SK-MEL-2
SK-MEL-5 = test system: SK-MEL-5
SK-OV-3 = test system: SK-OV-3
SNB-19 = test system: SNB-19
SNB-75 = test system: SNB-75
SR = test system: SR
SW-620 = test system: SW-620
TK-10 = test system: TK-10
U-251 = test system: U-251
UACC-62 = test system: UACC-62
UO-31 = test system: UO-31
HOP-62 = test system: HOP-62
MDA-MB-231 = test system: MDA-MB-231
NCI-H23 = test system: NCI-H23
NCI-H460 = test system: NCI-H460
NCI-H522 = test system: NCI-H522
NCI/ADR-RES = test system: NCI/ADR-RES
RXF 393 = test system: RXF 393
SF-295 = test system: SF-295
SN12C = test system: SN12C
UACC-257 = test system: UACC-257

O=C(O)C1(Cc2ccc3c(c2)CCC3)Cc2cc3c(cc2C1)CCC3
GI50 (786-0): > 100 µM (inactive)
GI50 (A498): > 100 µM (inactive)
GI50 (A549): > 100 µM (inactive)
GI50 (ACHN): > 100 µM (inactive)
GI50 (BT-549): > 100 µM (inactive)
GI50 (CCRF-CEM): > 100 µM (inactive)
GI50 (COLO 205): > 100 µM (inactive)
GI50 (DU-145): > 100 µM (inactive)
GI50 (EKVX): > 100 µM (inactive)
GI50 (HCC 2998): > 100 µM (inactive)
GI50 (HCT-116): > 100 µM (inactive)
GI50 (HCT-15): > 100 µM
GI50 (HL-60): > 100 µM (inactive)
GI50 (HOP-92): > 100 µM (inactive)
GI50 (HT-29): > 100 µM (inactive)
GI50 (Hs-578T): > 100 µM (inactive)
GI50 (IGROV-1): > 100 µM (inactive)
GI50 (K562): > 100 µM (inactive)
GI50 (KM12): > 100 µM (inactive)
GI50 (LOX IMVI): > 100 µM (inactive)
GI50 (M14): > 100 µM (inactive)
GI50 (MCF7): > 100 µM (inactive)
GI50 (MDA-MB-435): > 100 µM (inactive)
GI50 (MDA-N): > 100 µM (inactive)
GI50 (MOLT-4): > 100 µM (inactive)
GI50 (Malme-3M): > 100 µM (inactive)
GI50 (NCI-H226): > 100 µM (inactive)
GI50 (OVCAR-3): > 100 µM (inactive)
GI50 (OVCAR-4): > 100 µM (inactive)
GI50 (OVCAR-5): > 100 µM (inactive)
GI50 (OVCAR-8): > 100 µM (inactive)
GI50 (PC-3): > 100 µM (inactive)
GI50 (RPMI-8226): > 100 µM (inactive)
GI50 (SF-268): > 100 µM (inactive)
GI50 (SF-539): > 100 µM (inactive)
GI50 (SK-MEL-28): > 100 µM (inactive)
GI50 (SK-MEL-2): > 100 µM (inactive)
GI50 (SK-MEL-5): > 100 µM (inactive)
GI50 (SK-OV-3): > 100 µM (inactive)
GI50 (SNB-19): > 100 µM (inactive)
GI50 (SNB-75): > 100 µM (inactive)
GI50 (SR): > 100 µM (inactive)
GI50 (SW-620): > 100 µM (inactive)
GI50 (TK-10): > 100 µM (inactive)
GI50 (U-251): > 100 µM (inactive)
GI50 (UACC-62): > 100 µM (inactive)
GI50 (UO-31): > 100 µM (inactive)

CN(C)Cc1cc(/N=N/c2ccc(Cl)cc2)ccc1OC(=O)c1ccccc1
GI50 (786-0): 14.7 µM (inactive)
GI50 (A498): 15.5 µM (inactive)
GI50 (A549): 3.26 µM (inactive)
GI50 (ACHN): 14.5 µM (inactive)
GI50 (BT-549): 22.1 µM (inactive)
GI50 (CCRF-CEM): 15.3 µM (inactive)
GI50 (COLO 205): 18.4 µM (inactive)
GI50 (DU-145): 17 µM (inactive)
GI50 (EKVX): 12.1 µM (inactive)
GI50 (HCC 2998): 15.3 µM (inactive)
GI50 (HCT-116): 16.4 µM (inactive)
GI50 (HCT-15): 12.9 µM
GI50 (HL-60): 13.5 µM (inactive)
GI50 (HOP-62): 12.6 µM (inactive)
GI50 (HOP-92): 2.9 µM (inactive)
GI50 (HT-29): 14.4 µM (inactive)
GI50 (Hs-578T): 16.4 µM (inactive)
GI50 (IGROV-1): 13.2 µM (inactive)
GI50 (K562): 14.4 µM (inactive)
GI50 (KM12): 15.7 µM (inactive)
GI50 (LOX IMVI): 12.4 µM (inactive)
GI50 (MCF7): 13.2 µM (inactive)
GI50 (MDA-MB-231): 14.1 µM (inactive)
GI50 (MDA-MB-435): 15.7 µM (inactive)
GI50 (MDA-N): 16.5 µM (inactive)
GI50 (MOLT-4): 8.85 µM (inactive)
GI50 (Malme-3M): 16.7 µM (inactive)
GI50 (NCI-H226): 21.9 µM (inactive)
GI50 (NCI-H23): 17.8 µM (inactive)
GI50 (NCI-H460): 15.3 µM (inactive)
GI50 (NCI-H522): 12.2 µM (inactive)
GI50 (NCI/ADR-RES): 17.7 µM (inactive)
GI50 (OVCAR-3): 15.7 µM (inactive)
GI50 (OVCAR-4): 14.1 µM (inactive)
GI50 (OVCAR-5): 16.8 µM (inactive)
GI50 (OVCAR-8): 17 µM (inactive)
GI50 (PC-3): 15.6 µM (inactive)
GI50 (RPMI-8226): 15.6 µM (inactive)
GI50 (RXF 393): 14.5 µM (inactive)
GI50 (SF-268): 19.2 µM (inactive)
GI50 (SF-295): 14.8 µM (inactive)
GI50 (SF-539): 18.2 µM (inactive)
GI50 (SK-MEL-28): 16.1 µM (inactive)
GI50 (SK-MEL-5): 14.9 µM (inactive)
GI50 (SN12C): 14.6 µM (inactive)
GI50 (SNB-19): 15 µM (inactive)
GI50 (SNB-75): 17 µM (inactive)
GI50 (SR): 12 µM (inactive)
GI50 (SW-620): 16.9 µM (inactive)
GI50 (TK-10): 15.3 µM (inactive)
GI50 (U-251): 15 µM (inactive)
GI50 (UACC-257): 19.2 µM (inactive)
GI50 (UO-31): 12.6 µM (inactive)

COc1ccc(C(=O)c2cc(OC)c(OC)c(OC)c2)cc1OC
GI50 (786-0): 4.98 µM (inactive)
GI50 (A549): 4.44 µM (inactive)
GI50 (ACHN): 9.25 µM (inactive)
GI50 (BT-549): 5.41 µM (inactive)
GI50 (CCRF-CEM): 4.37 µM (inactive)
GI50 (COLO 205): 4.04 µM (inactive)
GI50 (DU-145): 3.92 µM (inactive)
GI50 (EKVX): > 100 µM (inactive)
GI50 (HCC 2998): 2.81 µM (inactive)
GI50 (HCT-116): 4.94 µM (inactive)
GI50 (HCT-15): 1.58 µM
GI50 (HL-60): 2.67 µM (inactive)
GI50 (HOP-62): 4.57 µM (inactive)
GI50 (HT-29): 3.1 µM (inactive)
GI50 (Hs-578T): 2.7 µM (inactive)
GI50 (IGROV-1): 9.68 µM (inactive)
GI50 (K562): 2.28 µM (inactive)
GI50 (KM12): 0.815 µM (active)
GI50 (LOX IMVI): 7.83 µM (inactive)
GI50 (M14): 8.83 µM (inactive)
GI50 (MCF7): 2.24 µM (inactive)
GI50 (MDA-MB-231): 6.17 µM (inactive)
GI50 (MDA-MB-435): 0.436 µM (active)
GI50 (MDA-N): 0.618 µM (active)
GI50 (MOLT-4): 4.17 µM (inactive)
GI50 (Malme-3M): 5.93 µM (inactive)
GI50 (NCI-H23): 10.2 µM (inactive)
GI50 (NCI-H460): 3.34 µM (inactive)
GI50 (NCI-H522): 3.63 µM (inactive)
GI50 (NCI/ADR-RES): 3.84 µM (inactive)
GI50 (OVCAR-3): 3.71 µM (inactive)
GI50 (OVCAR-5): 14.6 µM (inactive)
GI50 (OVCAR-8): 5.38 µM (inactive)
GI50 (PC-3): 3.86 µM (inactive)
GI50 (RPMI-8226): 7.53 µM (inactive)
GI50 (RXF 393): 2.36 µM (inactive)
GI50 (SF-268): 7.8 µM (inactive)
GI50 (SF-295): 1.82 µM (inactive)
GI50 (SF-539): 2.32 µM (inactive)
GI50 (SK-MEL-28): 5.94 µM (inactive)
GI50 (SK-MEL-2): 3.08 µM (inactive)
GI50 (SK-MEL-5): 4.44 µM (inactive)
GI50 (SN12C): 7.21 µM (inactive)
GI50 (SNB-19): 3.21 µM (inactive)
GI50 (SNB-75): 4.04 µM (inactive)
GI50 (SR): 3.28 µM (inactive)
GI50 (SW-620): 3.52 µM (inactive)
GI50 (TK-10): > 100 µM (inactive)
GI50 (U-251): 3.94 µM (inactive)
GI50 (UACC-257): 27.2 µM (inactive)
GI50 (UACC-62): 4.57 µM (inactive)
GI50 (UO-31): 3.71 µM (inactive)
